In patent US20240228499A1, “MASP-2 INHIBITORS AND METHODS OF USE” (Omeros Corporation, priority 2022, published 2024):
Where a name gives a salt, the structure may show the parent alone.

Experiments:
MASP-2 (CCP1-CCP2-SP) = target: T1, MASP-2 (CCP1-CCP2-SP) (Homo sapiens, UniProt O00187); assay: Enzymatic assay for MASP-2 inhibitory activity (fluorogenic substrate); format: biochemical; settings: room temperature, 20 mM Hepes pH 7.4, 20 min
T1 construct: 15 μL of Enzyme MASP-2 (CCP1-CCP2-SP) in Assay Buffer
T1 sequence (O00187 287-686 limits assumed): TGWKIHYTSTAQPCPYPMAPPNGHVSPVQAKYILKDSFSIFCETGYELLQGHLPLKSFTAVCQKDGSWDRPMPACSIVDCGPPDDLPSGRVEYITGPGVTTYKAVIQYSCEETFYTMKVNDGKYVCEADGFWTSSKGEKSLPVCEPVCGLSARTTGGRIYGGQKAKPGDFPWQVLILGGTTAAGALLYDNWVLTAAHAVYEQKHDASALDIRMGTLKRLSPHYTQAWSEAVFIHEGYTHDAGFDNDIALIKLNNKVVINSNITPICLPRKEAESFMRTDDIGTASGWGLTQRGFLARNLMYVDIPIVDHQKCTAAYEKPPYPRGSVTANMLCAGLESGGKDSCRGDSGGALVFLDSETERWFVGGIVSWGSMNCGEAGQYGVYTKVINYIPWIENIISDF
Protocol: The MASP-2 assay utilizes a fluorogenic substrate, based on the cleavage site for its natural substrate C2. The assay was run at room temperature in an assay buffer containing 20 mM HEPES, pH 7.4, 140 mM NaCl and 0.1% Tween 20. Assay parameters were adjusted such that the assay was linear with respect to time, enzyme, and substrate concentrations. Under the optimized assays conditions, IC50 values were equivalent to Ki values, except in the few cases of “tight binding” inhibitors. Cases of “tight binding” or possible “slow binding” inhibitors were handled by the methods described in Copeland R. A. (2013) Evaluation of Enzyme Inhibitors in Drug Discovery. 2nd Ed., John Wiley and Sons, Inc., Chapters 5-7.
The MASP-2 assay protocol was carried out as follows. Test compounds were serially diluted in DMSO and then 100 nL of each dilution was transferred to the assay plate(s). 10 μL of Assay Buffer was added, followed by 15 μL of Enzyme MASP-2 (CCP1-CCP2-SP) in Assay Buffer. 15 μL of Substrate in Assay Buffer was then added and the mixture was mixed to start the reaction. After 20 min at room temperature, 15 μL of a stop solution (0.1 M acetic acid) was added, the sample was mixed, and the plates were read on a SpectraMax i3× Microplate Reader with the data exported as an Excel file. Each assay plate included a “no inhibitor” (DMSO only) control, a “no enzyme” control, and a reference inhibitor control. % Activity values=100*(average test comp. fluorescence−average “no enzyme” fluorescence)/(average “DMSO only” fluorescence−average “no enzyme” fluorescence). IC50 and Ki replicate values were very reproducible, with values well within +2-fold.

human a-thrombin = target: T2, human a-thrombin (Homo sapiens, UniProt P00734); assay: Enzymatic assay for thrombin (fluorogenic peptide substrate Boc-VPR-AMC); format: biochemical; settings: room temperature, 20 mM Hepes pH 7.4, 20 min
T2 construct: enzyme (human a-thrombin (BioPharm® Lab.)); purchased BioPharm Lab
Protocol: The thrombin assay utilizes a fluorogenic peptide substrate (Boc-VPR-AMC (R&D Systems) and was run at room temperature in an assay buffer containing 20 mM Hepes, pH 7.4, 140 mM NaCl and 0.1% Tween 20. Assay parameters were adjusted such that the assay was linear with respect to time, enzyme, and substrate concentrations. Under these optimized assays conditions, IC50 values were equivalent to Ki values, except in a few cases of “tight binding” inhibitors. Cases of “tight binding” or possible “slow binding” inhibitors were handled by the methods described in Copeland R.A. (2013) Evaluation of Enzyme Inhibitors in Drug Discovery. 2nd Ed. John Wiley and Sons, Inc., Chapters 5-7.
The thrombin assay protocol was carried out as follows. Test compounds were serially diluted in DMSO and then 100 nL of each dilution was transferred to the assay plate(s). 10 μL of Assay Buffer was added, followed by 15 μL of enzyme (human a-thrombin (BioPharm® Lab.)) in assay buffer. 15 μL of substrate in assay buffer was then added and the sample mixed to start the reaction. After 20 min at room temperature, 15 μL of a stop solution (0.1 M acetic acid) was added, the sample was mixed, and the plates were read on a SpectraMax® i3× Microplate Reader with the data exported as Excel files. Each assay plate included a “no inhibitor” (DMSO only) control, a “no enzyme” control, and a reference inhibitor control. % Activity values=100*(ave. test comp. fluorescence−ave. “no enz” fluorescence)/(ave. “DMSO only” fluorescence−ave. “no enz” fluorescence). IC50 and Ki values were very reproducible, with values falling well within +2-fold.

For `CCc1cccc(CNc2cnc3n(c2=O)[C@H](C(=O)NCc2ccc(N)nc2C)CC3)c1` [Compound 26], the Ki (MASP-2 (CCP1-CCP2-SP)) was < 500 nM and the Ki (human a-thrombin) was 500 to 2500 nM.

In the case of `N#CCc1cccc(CNc2cnc3n(c2=O)[C@H](C(=O)N[C@@H]2CCc4nc(N)ccc42)CC3)c1` [Compound 91, (S)-N-((R)-2-amino-6,7-dihydro-5H-cyclopenta[b]pyridin-5-yl)-3-((3-(cyanomethyl)benzyl)amino)-4-oxo-4,6,7,8-tetrahydro-pyrrolo[1,2-a]pyrimidine-6-carboxamide], the Ki (MASP-2 (CCP1-CCP2-SP)) is reported as < 500 nM and the Ki (human a-thrombin) is reported as 500 to 2500 nM.

In the case of `Cc1cc(Cl)cc(CNc2cnc3n(c2=O)[C@H](C(=O)N[C@@H]2CCc4ncccc42)CC3)c1` [Compound 85, (S)-3-((3-chloro-5-methylbenzyl)amino)-N-((R)-6,7-dihydro-5H-cyclopenta[b]pyridin-5-yl)-4-oxo-4,6,7,8-tetrahydropyrrolo[1,2-a]pyrimidine-6-carboxamide], the Ki (MASP-2 (CCP1-CCP2-SP)) is reported as < 500 nM and the Ki (human a-thrombin) is reported as > 25000 nM.

`Cc1nc(N)ccc1CNC(=O)[C@@H]1CCc2ncc(NCc3ccccc3C(F)F)c(=O)n21` [Compound 27, (S)—N-((6-amino-2-methylpyridin-3-yl)methyl)-3-((2-(difluoromethyl)benzyl)amino)-4-oxo-4,6,7,8-tetrahydropyrrolo[1,2-a]pyrimidine-6-carboxamide, di-trifluoroacetate] was tested, and the Ki (MASP-2 (CCP1-CCP2-SP)) was < 500 nM and the Ki (human a-thrombin) was 500 to 2500 nM.

For `Cc1nc(N)ccc1CNC(=O)[C@@H]1CCc2ncc(NCc3ccc4c(c3)OC(F)(F)O4)c(=O)n21` [Compound 12, (S)—N-((6-amino-2-methylpyridin-3-yl)methyl)-3-(((2,2-difluorobenzo[D][1,3]dioxol-5-yl)methyl)amino)-4-oxo-4,6,7,8-tetrahydropyrrolo[1,2-a]pyrimidine-6-carboxamide, trifluoroacetate], the Ki (MASP-2 (CCP1-CCP2-SP)) was < 500 nM and the Ki (human a-thrombin) was 2500 to 10000 nM.

For `Cc1cc(F)cc(CNc2cnc3n(c2=O)[C@H](C(=O)N[C@@H]2CCc4nc(N)ccc42)CC3)c1` [Compound 96], the Ki (MASP-2 (CCP1-CCP2-SP)) was < 500 nM and the Ki (human a-thrombin) was 500 to 2500 nM.

In the case of `Nc1ccc2c(n1)CC[C@H]2NC(=O)[C@@H]1CCc2ncc(NCc3cccc(F)c3)c(=O)n21` [Compound 101], the Ki (MASP-2 (CCP1-CCP2-SP)) is reported as < 500 nM and the Ki (human a-thrombin) is reported as 500 to 2500 nM.

`Cc1nc(N)ccc1CNC(=O)[C@@H]1CCc2ncc(NCc3ccccc3F)c(=O)n21` [Compound 68] was tested, and the Ki (MASP-2 (CCP1-CCP2-SP)) was < 500 nM and the Ki (human a-thrombin) was 2500 to 10000 nM.

In the case of `COc1cc(F)cc(CNc2cnc3n(c2=O)[C@H](C(=O)NCc2ccc(N)nc2C)CC3)c1` [Compound 49, (S)-N-((6-amino-2-methylpyridin-3-yl)methyl)-3-((3-fluoro-5-methoxybenzyl)amino)-4-oxo-4,6,7,8-tetrahydropyrrolo[1,2-a]pyrimidine-6-carboxamide, di-trifluoroacetate], the Ki (MASP-2 (CCP1-CCP2-SP)) is reported as < 500 nM and the Ki (human a-thrombin) is reported as < 500 nM.

In the case of `Cc1nc(N)ccc1CNC(=O)[C@@H]1CCc2ncc(NCc3ccc(C(F)(F)F)cc3F)c(=O)n21` [Compound 43, (S)-N-((6-amino-2-methylpyridin-3-yl)methyl)-3-((2-fluoro-4-(trifluoromethyl)benzyl)amino)-4-oxo-4,6,7,8-tetrahydro-pyrrolo[1,2-a]pyrimidine-6-carboxamide, di-trifluoroacetate], the Ki (MASP-2 (CCP1-CCP2-SP)) is reported as < 500 nM and the Ki (human a-thrombin) is reported as 2500 to 10000 nM.

For `Cc1cc(CNc2cnc3n(c2=O)[C@H](C(=O)N[C@H](C)c2ccc(N)nc2)CC3)cc(C(F)(F)F)c1` [Compound 51, (S)—N—((R)-1-(6-aminopyridin-3-yl)ethyl)-3-((3-methyl-5-(trifluoromethyl)benzyl)amino)-4-oxo-4,6,7,8-tetrahydropyrrolo[1,2-a]pyrimidine-6-carboxamide. DI-trifluoroacetate], the Ki (MASP-2 (CCP1-CCP2-SP)) was < 500 nM and the Ki (human a-thrombin) was > 25000 nM.

For `Cc1ccc(F)cc1CNc1cnc2n(c1=O)[C@H](C(=O)NCc1ccc(N)nc1C)CC2` [Compound 31, (S)-N-((6-amino-2-methylpyridin-3-yl)methyl)-3-((5-fluoro-2-methylbenzyl)amino)-4-oxo-4,6,7,8-tetrahydropyrrolo[1,2-a]pyrimidine-6-carboxamide, di-trifluoroacetate], the Ki (MASP-2 (CCP1-CCP2-SP)) was < 500 nM and the Ki (human a-thrombin) was 500 to 2500 nM.
